Columns and labels:
[1] = test system: MEG-01 cells; test: Viability (proliferation) assay, Trypan blue exclusion, MEG-01; type: cell-based, human
[2] = test system: MEG-01 cells; test: Thrombocytopoiesis / proplatelet formation by microscopy; type: cell-based, human
Procedure: Light microscopy (phase contrast) and DAPI fluorescence microscopy. High quality pictures and live imaging were obtained at Cleveland Clinic Imaging Core (Cleveland, Ohio). DAPI staining of cultured MEG-01 cells was performed with fresh cells. For live imaging (observing a single cell for a 24 hour period of time) of the thrombocytopoiesis process, MEG-01 suspension cells were made adherent by using Fibronectin (FN) coated culture dishes. FN was used, at 5 μg/cm^2 and incubated at 37° C. for 1 h, as recommended by the supplier (BD Biosciences, Bedford, Mass., USA).
Scanning electron microscopy (SEM). Cell preparation and pictures were performed at the Microscopy Core Facility (Cleveland Clinic). Cells were grown for 4 days in the presence of 10 μM DMAT and then collected by differential centrifugation. Cells were fixed in glutaraldehyde and then further processed at the Core. The clot was prepared with platelets collected from MEG-01 cultures treated with 10 μM DMAT. Human thrombin 0.5 U/ml for 15 minutes was used to activate them.

[3] = test system: MCF-7 cells; test: Annexin V apoptosis/necrosis assay, MCF-7; type: cell-based, human
Procedure: Apoptosis Assays using Flow Cytometry with Annexin V-FITC and propidium iodide (PI). For induction of typical apoptosis, cells were grown in the presence of 1 μM staurosporine (Sigma-Aldrich) for 6 hours. The staurosporine treated cells were stained as follows: control 1 with PI, control 2 with Annexin V-FITC and control 3 both PI and Annexin V-FITC in order to have the brightest controls for compensation and proper collection of the flow cytometry data. Cell necrosis was induced by heat shock (65° C. for 30 minutes). The stained control, both PI and Annexin V-FITC labeled, was then used as the reference in establishing the level of apoptosis induced by the treatments. Data was collected on logarithmic modes, two-colors. Annexin V-FITC corresponds to FL1 H channel, and PI to FL3H or FL2H channels.
Annexin V-FITC and PI apoptosis assay staining protocol. Apoptosis Annexin V-FITC and PI kit from BD Biosciences, CA, USA, was used. 10^5-10^6 cells were stained with 50 μg/ml PI and with 0.5 μg/ml FITC-labeled Annexin V using the staining protocol provided by the supplier. Samples were then analyzed immediately by flow cytometry.

[4] = test system: MCF-7 xenografts; test: In vivo therapy of MCF-7 xenografts, tumor volume; design: species or system mice
Description: Creation of the xenografts MCF-7, SW-480 and WM-164. Immunodeficient male and female athymic nude nu/nu mice were used, provided and housed by Dr. Lindner, DJ from Taussig Cancer Center, Cleveland Clinic and Case Western Reserve University. Mice were checked every day. Mice were housed in filtered air flow cabinets with autoclaved bedding at a density of 5 mice/cage. They were fed autoclaved Purina Lab Rodent Chow® 5010 and HCl-acidified distilled water ad libitum and were placed in rooms with controlled temperature, humidity and 12-hr light-dark cycles. Procedures involving animals and their care were conducted in conformity with the institutional guidelines that are in compliance with national and international laws and policies (EEC Council Directive 86/609, OJL 358, Dec. 1, 1987, and the National Institutes of Health Guide for the Care and Use of Laboratory, Animals, NIH Publication 85-23, 1985).
For engraftment, cells in cell culture media were injected. […] Cells were counted with a hemacytometer using Trypan blue (only live cells were counted). […]
In vivo therapy with DMAT of MCF-7 xenografts. […] Tumor diameters were measured using a caliper and tumor volume was calculated using the prolate-spheroid formula. […]

[5] = test system: SW-480 cells; test: Anchorage independence in soft agar, SW-480; type: cell-based, human; settings: DMAT 10 μM, one week
[6] = test system: WM-164 cells; test: Proliferation assay in vitro, WM-164; type: cell-based, human; settings: for cell counts: four days
Description: Viability (proliferation) assay, Trypan blue exclusion. Cells were counted using a Neubauer hemacytometer.

[7] = test system: tumors of U-87 cells; test: Murine xenograft of U-87 cells, tumor volume; type: in vivo, mice; settings: DMAT at effective dosage levels (in DMSO) per animal per day, approximately 24 days
Procedure: FIG. 96 illustrates the effect of administration of DMAT as compared to a control, i.e. DMSO, for a period of approximately 24 days. FIG. 96 is a graph of a murine xenograft treated with DMAT, compared to a control. Mice with tumors of U-87 cells were treated with DMAT at effective dosage levels (in DMSO) per animal per day. The daily animal weight was averaged at 32.5 g at the start of treatment. Tumors were measured daily and tumor volumes were calculated based upon a prolate spheroid model. FIG. 96 illustrates the significant benefits of treatment with DMAT (squares) as compared to the control (diamonds).

## CN(C)c1nc2c(Br)c(Br)c(Br)c(Br)c2[nH]1 [DMAT, 2-dimethylamino-4,5,6,7-tetrabromo-1H-benzimidazole]
[1]; 25 μM DMAT, compared with 5 nM PMA
  proliferation of MEG-01 cells (Trypan Blue exclusion): level of decrease was similar
[1]; 50 μM DMAT, 4 days of treatment
  cell number / proliferation rate of MEG-01 cells: maintained a steady number of cells
[2]
  thrombocytopoiesis: induced thrombocytopoiesis
[2]; 10 μM DMAT, as early as from the second day
  proplatelet formation: form proplatelet extensions
[3]; 10 μM DMAT, 24 hours
  level of apoptotic cells: 28.4%
  level of necrotic cells: 8.7%
[3]; 20 μM DMAT
  level of apoptotic cells: 49.0%
  level of necrotic cells: 7.8%
[4]; DMAT 10 mg/kg (in DMSO) per day, 13 day period, control about 50 to about 1750 mm^3
  tumor volume: remarkably stable size and nearly no increase
[4]; mouse, in vivo
  response of xenograft tumors to treatment (summary): tumor ablation
[5]
  colonies in soft agar: much smaller and fewer colonies
[6]
  sensitivity of proliferation to DMAT compared with MCF-7 and SW-480: more resistant
[6]; 10 μM DMAT
  cell counts: cell counts between those of the control and those of the WM-164 cells treated with 20 μM
[6]; 20 μM DMAT
  cell counts: lowest cell counts
[7]
  tumor growth vs untreated control: significantly less cancerous growth
